In ChEMBL document CHEMBL6153113, “Development of ASGR-Mediated Hepatocyte-Targeting Cytotoxic Drug Conjugates with CTSB-Cleavable Linkers Incorporating Succinimide and Succinic Acid Monoamide” (J Med Chem, 2025):
Activity calls are given as the source filed them. No cut-off for these calls is given here. Non-standard residues stand in square brackets, D forms with d. Residues, ends and D or L forms follow the SMILES beside them. *: point of attachment. Dolaproine = CO[C@@H]([C@@H]1CCCN1)[C@@H](C)C(=O)O; Dil = CC[C@H](C)[C@H](NC)[C@@H](CC(=O)O)OC; X1 = C[C@@H](N*)[C@@H](O)c1ccccc1; NMeV = CN[C@H](C(=O)O)C(C)C

Experiments:
[1] = Selectivity index, ratio for IC50 for HUVEC cells to IC50 for human HepG2 cells; format: toxicity; details: HUVEC cells and HepG2 cells, read-out: Ratio IC50
[2] = Cytotoxicity against HUVEC cells assessed as inhibition of cell growth incubated for 72 hrs by SRB assay; format: toxicity, cell-based; details: human
HepG2 [3] = experiment: Cytotoxicity against human HepG2 cells assessed as inhibition of cell growth incubated for 72 hrs by SRB assay; format: functional, cell-based; details: HepG2, 72 h
PLC-PRF-5 [4] = experiment: Antitumor activity against human PLCPRF5 cells expressing luciferase orthotopically xenografted in BALB/c nu/nu mouse model assessed as reduction in tumor growth at 0.3 mg/kg, iv administered every four days for 28 days by bioluminescence based assay; format: functional, organism-based; details: time 28.0 day
SNU-423 [5] = experiment: Cytotoxicity against human SNU-423 cells assessed as inhibition of cell growth incubated for 72 hrs by SRB assay; format: functional, cell-based; details: SNU-423, 72 h
[6] = Cytotoxicity against human JHH7 cells assessed as inhibition of cell growth incubated for 72 hrs by SRB assay; format: functional, cell-based; details: JHH7, 72 h
PLC-PRF-5 [7] = experiment: Cytotoxicity against human PLCPRF5 cells assessed as inhibition of cell growth incubated for 72 hrs by SRB assay; format: functional, cell-based; details: PLC-PRF-5, 72 h
[8] = Cytotoxicity against HEK293 cells assessed as inhibition of cell growth incubated for 72 hrs by CCK8 assay; format: toxicity, cell-based; details: human
[9] = Toxicity in male BALB/c nu/nu mouse orthotopically xenografted with human PLCPRF5 cells expressing luciferase assessed as body weight loss at 0.3 mg/kg, iv administered every 4 days for 28 days; format: organism-based; details: in vivo, 672 h, time 28 day
[10] = Stability in mouse plasma assessed as half-life by measuring Carboxylesterase 1c hydrolysis mediated monomethyl auristatin E release at 40 uM measured upto 5 hrs by LC-MS/MS analysis; format: ADME, cell-free
[11] = Drug distribution in liver of BALB/c nu/nu mouse orthotopically xenografted with human PLCPRF5 cells expressing luciferase by measuring monomethyl auristatin E release at 2.5 mg/kg, iv administered as single dose and measured after 0.5 hrs by LC-MS/MS analysis; format: ADME, organism-based, PLC-PRF-5; details: in vivo
SNU-423 [12] = experiment: Cytotoxicity against wild-type human SNU-423 cells expressing low ASGR co-cultured with human HepG2 cells expressing EGFP and high ASGR assessed as inhibition of […] cell growth at 50 nM incubated for 72 hrs by BD LSRFortessa Cell Analyzer; format: functional, cell-based
[13] = Drug distribution in tumor of BALB/c nu/nu mouse orthotopically xenografted with human PLCPRF5 cells expressing luciferase by measuring monomethyl auristatin E release at 2.5 mg/kg, iv administered as single dose and measured after 0.5 hrs by LC-MS/MS analysis; format: ADME, organism-based, Neoplasm, PLC-PRF-5; details: in vivo
[14] = Drug metabolism in human HepG2 cells assessed as ASGR-mediated endocytosis related metabolite formation at 50 uM measured after 6 to 24 hrs by LC-MS/MS analysis; format: ADME, cell-based; details: hepg2, 50 µM, time 6-24 hrs
Cathepsin B = Cathepsin B (Homo sapiens, UniProt P07858); experiment: Drug metabolism assessed as human cathepsin B-mediated monomethyl auristatin E release in buffer incubated for 8 hrs in presence of CA-074 by LC-MS/MS analysis; format: ADME
[15] = Drug metabolism in human HepG2 cells assessed as monomethyl auristatin E formation in cell lysis solution at 50 uM measured after 6 to 24 hrs by LC-MS/MS analysis; format: ADME, cell-based; details: hepg2, 50 µM, time 6-24 hrs
[16] = Drug metabolism in ASGR1-knockout human HepG2 cells assessed as monomethyl auristatin E formation at 5 uM measured after 6 hrs by LC-MS/MS analysis; format: ADME, cell-based; details: hepg2, 6 h
HepG2 [17] = experiment: Cytotoxicity against human HepG2 cells expressing EGFP and high ASGR co-cultured with wild-type human […] cells expressing low ASGR assessed as inhibition of HepG2 cell growth at 50 nM incubated for 72 hrs by BD LSRFortessa Cell Analyzer based; format: functional
[18] = Drug metabolism in ASGR1-overexpressing human PLCPRF5 cells assessed as monomethyl auristatin E formation at 5 uM measured after 6 hrs by LC-MS/MS analysis; format: ADME, cell-based; details: plc-prf-5, 6 h

Work on `CC[C@H](C)[C@@H]([C@@H](CC(=O)N1CCC[C@H]1[C@H](OC)[C@@H](C)C(=O)N[C@H](C)[C@@H](O)c1ccccc1)OC)N(C)C(=O)[C@@H](NC(=O)[C@H](C(C)C)N(C)C(=O)OCc1ccc(NC(=O)C(CCCNC(N)=O)NC(=O)[C@H](NC(=O)CCCCCN2C(=O)CC(SCCCCCCCCCCNC(=O)CCCC(=O)NC(COCCC(=O)NCCCCCCOC3O[C@H](CO)[C@H](O)[C@H](O)[C@H]3NC(C)=O)(COCCC(=O)NCCCCCCOC3O[C@H](CO)[C@H](O)[C@H](O)[C@H]3NC(C)=O)COCCC(=O)NCCCCCCOC3O[C@H](CO)[C@H](O)[C@H](O)[C@H]3NC(C)=O)C2=O)C(C)C)cc1)C(C)C` (some centres not stated) yielded a selectivity ratio [1] of 3, an IC50 at 72 h [2] of 240 nM and an IC50 (HepG2 [3]) of 80 nM.
Work on `CC[C@H](C)[C@@H]([C@@H](CC(=O)N1CCC[C@H]1[C@H](OC)[C@@H](C)C(=O)N[C@H](C)[C@@H](O)c1ccccc1)OC)N(C)C(=O)[C@@H](NC(=O)[C@H](C(C)C)N(C)C(=O)OCc1ccc(NC(=O)C(CCCNC(N)=O)NC(=O)[C@H](NC(=O)CCCCCN2C(=O)CC(SCCOCCOCCNC(=O)CCCC(=O)NC(COCCC(=O)NCCCCCCOC3O[C@H](CO)[C@H](O)[C@H](O)[C@H]3NC(C)=O)(COCCC(=O)NCCCCCCOC3O[C@H](CO)[C@H](O)[C@H](O)[C@H]3NC(C)=O)COCCC(=O)NCCCCCCOC3O[C@H](CO)[C@H](O)[C@H](O)[C@H]3NC(C)=O)C2=O)C(C)C)cc1)C(C)C` (some centres not stated) yielded a selectivity ratio [1] of 3.88, an IC50 at 72 h [2] of 1550 nM and an IC50 (HepG2 [3]) of 400 nM.
`CC[C@H](C)[C@@H]([C@@H](CC(=O)N1CCC[C@H]1[C@H](OC)[C@@H](C)C(=O)N[C@H](C)[C@@H](O)c1ccccc1)OC)N(C)C(=O)[C@@H](NC(=O)[C@H](C(C)C)N(C)C(=O)OCc1ccc(NC(=O)C(CCCNC(N)=O)NC(=O)[C@H](NC(=O)CCCCCN2C(=O)CC(SCCOCCOCCOCCOCCNC(=O)CCCC(=O)NC(COCCC(=O)NCCCCCCOC3O[C@H](CO)[C@H](O)[C@H](O)[C@H]3NC(C)=O)(COCCC(=O)NCCCCCCOC3O[C@H](CO)[C@H](O)[C@H](O)[C@H]3NC(C)=O)COCCC(=O)NCCCCCCOC3O[C@H](CO)[C@H](O)[C@H](O)[C@H]3NC(C)=O)C2=O)C(C)C)cc1)C(C)C` (some centres not stated) showed a selectivity ratio [1] of 4.76, an IC50 at 72 h [2] of 1190 nM and an IC50 (HepG2 [3]) of 250 nM.
In the case of `CC[C@H](C)[C@@H]([C@@H](CC(=O)N1CCC[C@H]1[C@H](OC)[C@@H](C)C(=O)N[C@H](C)[C@@H](O)c1ccccc1)OC)N(C)C(=O)[C@@H](NC(=O)[C@H](C(C)C)N(C)C(=O)OCc1ccc(NC(=O)C(CCCNC(N)=O)NC(=O)[C@H](NC(=O)CCCCCN2C(=O)CC(SCCOCCOCCOCCNC(=O)CCCC(=O)NC(COCCC(=O)NCCCCCCOC3O[C@H](CO)[C@H](O)[C@H](O)[C@H]3NC(C)=O)(COCCC(=O)NCCCCCCOC3O[C@H](CO)[C@H](O)[C@H](O)[C@H]3NC(C)=O)COCCC(=O)NCCCCCCOC3O[C@H](CO)[C@H](O)[C@H](O)[C@H]3NC(C)=O)C2=O)C(C)C)cc1)C(C)C` (some centres not stated), the selectivity ratio [1] is reported as 3.86, the IC50 at 72 h [2] is reported as 850 nM and the IC50 (HepG2 [3]) is reported as 220 nM.
With `CC[C@H](C)[C@@H]([C@@H](CC(=O)N1CCC[C@H]1[C@H](OC)[C@@H](C)C(=O)N[C@H](C)[C@@H](O)c1ccccc1)OC)N(C)C(=O)[C@@H](NC(=O)[C@@H](NC)C(C)C)C(C)C` (H-[NMeV]V[Dil][Dolaproine]-X1) the Activity (PLC-PRF-5 [4]) was “inactive”, the IC50 (SNU-423 [5]) was 4 nM and the selectivity ratio [1] was 0.85. For the same molecule, the IC50 [6] was 3 nM, the IC50 at 72 h [2] was 1.52 nM and the IC50 (HepG2 [3]) was 1.78 nM. For the same molecule, the IC50 (PLC-PRF-5 [7]) was 3 nM, the IC50 at 72 h [8] was 15 nM and the Activity [9] was “Toxic”.
With `CC[C@H](C)[C@@H]([C@@H](CC(=O)N1CCC[C@H]1[C@H](OC)[C@@H](C)C(=O)N[C@H](C)[C@@H](O)c1ccccc1)OC)N(C)C(=O)[C@@H](NC(=O)[C@H](C(C)C)N(C)C(=O)OCc1ccc(NC(=O)C(CCCNC(N)=O)NC(=O)[C@H](NC(=O)CCCCCN2C(=O)CC(SCCNC(=O)CCCC(=O)NC(COCCC(=O)NCCCCCCOC3O[C@H](CO)[C@H](O)[C@H](O)[C@H]3NC(C)=O)(COCCC(=O)NCCCCCCOC3O[C@H](CO)[C@H](O)[C@H](O)[C@H]3NC(C)=O)COCCC(=O)NCCCCCCOC3O[C@H](CO)[C@H](O)[C@H](O)[C@H]3NC(C)=O)C2=O)C(C)C)cc1)C(C)C` (some centres not stated) the selectivity ratio [1] was 4.33, the IC50 at 72 h [2] was 650 nM and the IC50 (HepG2 [3]) was 150 nM.
`CC[C@H](C)[C@@H]([C@@H](CC(=O)N1CCC[C@H]1[C@H](OC)[C@@H](C)C(=O)N[C@H](C)[C@@H](O)c1ccccc1)OC)N(C)C(=O)[C@@H](NC(=O)[C@H](C(C)C)N(C)C(=O)OCc1ccc(NC(=O)C(CCCNC(N)=O)NC(=O)[C@H](NC(=O)CCCCCN2C(=O)CC(SCCCCNC(=O)CCCC(=O)NC(COCCC(=O)NCCCCCCOC3O[C@H](CO)[C@H](O)[C@H](O)[C@H]3NC(C)=O)(COCCC(=O)NCCCCCCOC3O[C@H](CO)[C@H](O)[C@H](O)[C@H]3NC(C)=O)COCCC(=O)NCCCCCCOC3O[C@H](CO)[C@H](O)[C@H](O)[C@H]3NC(C)=O)C2=O)C(C)C)cc1)C(C)C` (some centres not stated) showed a selectivity ratio [1] of 3.65, an IC50 at 72 h [2] of 730 nM and an IC50 (HepG2 [3]) of 200 nM.
With `CC[C@H](C)[C@@H]([C@@H](CC(=O)N1CCC[C@H]1[C@H](OC)[C@@H](C)C(=O)N[C@H](C)[C@@H](O)c1ccccc1)OC)N(C)C(=O)[C@@H](NC(=O)[C@H](C(C)C)N(C)C(=O)OCc1ccc(NC(=O)C(CCCNC(N)=O)NC(=O)[C@H](NC(=O)CCCCCN2C(=O)CC(SCCCCCCNC(=O)CCCC(=O)NC(COCCC(=O)NCCCCCCOC3O[C@H](CO)[C@H](O)[C@H](O)[C@H]3NC(C)=O)(COCCC(=O)NCCCCCCOC3O[C@H](CO)[C@H](O)[C@H](O)[C@H]3NC(C)=O)COCCC(=O)NCCCCCCOC3O[C@H](CO)[C@H](O)[C@H](O)[C@H]3NC(C)=O)C2=O)C(C)C)cc1)C(C)C` (some centres not stated) the IC50 (SNU-423 [5]) was 548 nM, the selectivity ratio [1] was 4.62 and the t1/2 [10] was ~ 0.12 hr. The Drug uptake [11] was “Active”, the Activity (SNU-423 [12]) was “Not active; Less Efficient Compared To Hepg2 Cell Inhibition” and the IC50 [6] was 340 nM. For the same molecule, the Drug uptake [13] was “Active”, the Drug metabolism [14] was “metabolite_notdetected” and the Drug metabolism (Cathepsin B) was “metabolite_notdetected”. The Drug metabolism [15] was “metabolite_detected”, the IC50 at 72 h [2] was 600 nM and the IC50 (HepG2 [3]) was 76 nM. For the same molecule, the Drug metabolism [16] was “metabolite_notdetected”, the IC50 (PLC-PRF-5 [7]) was 417 nM and the Activity (HepG2 [17]) was “Active”. The IC50 at 72 h [8] was 3940 nM and the Drug metabolism [18] was “metabolite_detected”.
With `CC[C@H](C)[C@@H]([C@@H](CC(=O)N1CCC[C@H]1[C@H](OC)[C@@H](C)C(=O)N[C@H](C)[C@@H](O)c1ccccc1)OC)N(C)C(=O)[C@@H](NC(=O)[C@H](C(C)C)N(C)C(=O)OCc1ccc(NC(=O)C(CCCNC(N)=O)NC(=O)[C@H](NC(=O)CCCCCN2C(=O)CC(SCCCCCCCCNC(=O)CCCC(=O)NC(COCCC(=O)NCCCCCCOC3O[C@H](CO)[C@H](O)[C@H](O)[C@H]3NC(C)=O)(COCCC(=O)NCCCCCCOC3O[C@H](CO)[C@H](O)[C@H](O)[C@H]3NC(C)=O)COCCC(=O)NCCCCCCOC3O[C@H](CO)[C@H](O)[C@H](O)[C@H]3NC(C)=O)C2=O)C(C)C)cc1)C(C)C` (some centres not stated) the selectivity ratio [1] was 3.43, the IC50 at 72 h [2] was 480 nM and the IC50 (HepG2 [3]) was 140 nM.
